This experiment addresses T1, 5-lipoxygenase (Homo sapiens, UniProt P09917).
T1 construct: Whole human blood is collected by venipuncture into EDTA; endogenous in cells; host or cells: leukocytes isolated from whole human blood (dextran sedimentation, hypotonic lysis)
T1 sequence (P09917 1-674): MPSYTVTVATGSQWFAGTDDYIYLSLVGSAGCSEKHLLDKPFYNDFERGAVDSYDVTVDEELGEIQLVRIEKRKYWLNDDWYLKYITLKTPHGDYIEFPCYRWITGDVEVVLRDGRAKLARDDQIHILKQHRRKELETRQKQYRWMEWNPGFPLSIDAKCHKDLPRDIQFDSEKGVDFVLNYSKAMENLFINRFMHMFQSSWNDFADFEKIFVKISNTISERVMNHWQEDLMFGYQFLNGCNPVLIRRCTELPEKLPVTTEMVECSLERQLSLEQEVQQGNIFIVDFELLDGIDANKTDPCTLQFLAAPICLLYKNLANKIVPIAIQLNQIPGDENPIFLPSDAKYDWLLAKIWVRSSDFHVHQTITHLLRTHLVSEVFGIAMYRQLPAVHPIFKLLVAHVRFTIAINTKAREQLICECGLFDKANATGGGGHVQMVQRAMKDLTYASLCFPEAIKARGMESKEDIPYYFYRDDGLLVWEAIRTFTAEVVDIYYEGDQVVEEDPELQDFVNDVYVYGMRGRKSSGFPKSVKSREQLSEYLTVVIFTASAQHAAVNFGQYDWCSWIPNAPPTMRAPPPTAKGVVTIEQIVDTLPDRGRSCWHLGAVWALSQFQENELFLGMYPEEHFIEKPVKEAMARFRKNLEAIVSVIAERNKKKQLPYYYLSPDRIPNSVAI
Kind of experiment: 5-Lipoxygenase inhibition in human leukocytes (A23187-stimulated, LTC4 radioimmunoassay). Format: cell-based. Here is the method:
The test method described below measures the ability of compounds to inhibit 5-lipoxygenase activity in human leukocytes.
Whole human blood is collected by venipuncture into EDTA (1.4 mL of 0.25M per 60 mL of whole blood). The red blood cells are sedimented with a 6% dextran/0.9% sodium chloride solution at a ratio of 25 mL whole blood to 15 mL dextran solution. The blood/dextran combination is mixed by inversion and the red blood cells are allowed to settle out for 45 minutes at ambient temperature. The plasma/dextran supernatant is removed then centrifuged at ambient temperature at 3000 rpm for 10 minutes. The plasma/dextran supernatant is removed and the cells are resuspended in 10 mL of the plasma/dextran solution. […] The pellet is then resuspended into Tris buffer containing 1 mM calcium chloride to provide approximately 1.0 X 10^7 cells/mL.
Compounds are dissolved in dimethyl sulfoxide. […] Each concentration is tested in duplicate.
A 15 µL portion of Tris buffer containing 1 mM calcium chloride is added to each well of a 96 well microtiter plate. A 1 µL portion of drug solution or vehicle (dimethyl sulfoxide) is added to each well followed by the addition of an 75 µL portion of the cell suspension. The plates are gently mixed then allowed to stand at ambient temperature for 10 minutes. A 10 µL portion of 30 µM A23187 Calcium Ionophore (prepared by dissolving the ionophore in DMSO and then diluting 1:80 into the Tris buffer) is added to each well except the wells that contain the blanks (The blank wells measure the level of LTC4 production in the absence of A23187.). The plates are gently mixed then incubated at 37°C for 10 minutes.
Following incubation the plates are centrifuged at 2000 rpm for 1.5 minutes and the supernatant is removed as quickly as possible to stop the reaction. The supernatants are frozen at -20°C until they are assayed.
The supernatants are assayed for the presence of Leukotriene C4 by radioimmunoassay which is performed according to the manufacturer's (Advanced Magnetics; Cambridge, MA) instructions.

Setting [1] is: human leukocytes, A23187 Calcium Ionophore, LTC4 formed, read-out: IC50.

Where two headings read alike, the source gives them in different places.

As for `CC(C)N(O)C(=O)Nc1ccccc1Cl` [Compound 24, 3-(2-chlorophenyl)-1-hydroxy-1-(1-methylethyl)urea], the IC50 – broadly, the concentration that gives 50% inhibition – was 200 nM.

As for `COc1ccc(NC(=O)N(O)C(C)C)cc1` [Compound 23, 1-hydroxy-3-(4-methoxyphenyl)-1-(1-methylethyl)urea], the concentration for half-maximal inhibition (IC50) under setting [1] turned out to be 150 nM. The same measure, in the same setting: the value for `CC(C)CN(O)C(=O)Nc1ccccc1` [Compound 54, 1-Hydroxy-1-(2-methylpropyl)-3-phenylurea] was 94 nM. For the molecule `CN(O)C(=O)Nc1cccc(S(C)(=O)=O)c1` [Compound 59, 1-Hydroxy-1-methyl-3-[3-(methylsulfonyl)phenyl]urea], the IC50 under setting [1] came out at 1100 nM. On to `COc1cccc(NC(=O)N(C)O)c1` [Compound 5, 1-hydroxy-3-(3-methoxyphenyl)-1-methylurea], for which the IC50 under setting [1] turned out to be 420 nM.

As for `CN(O)C(=O)Nc1ccccc1` [Compound 10, 1-hydroxy-1-methyl-3-phenylurea], under setting [1], the IC50 worked out at 20 nM. In the case of `Cc1cccc(NC(=O)N(C)O)c1` [Compound 7, 1-hydroxy-1-methyl-3-(3-methylphenyl)urea], the IC50 under setting [1] came out at 280 nM. Same read-out and setting: under `CC(C)N(O)C(=O)Nc1ccc(F)cc1` [Compound 18, 3-(4-fluorophenyl)-1-hydroxy-1-(1-methylethyl)urea] stands 210 nM; under `CN(O)C(=O)Nc1cccc(F)c1` [Compound 8, 3-(3-fluorophenyl)-1-hydroxy-1-methylurea], 680 nM; under `CC(C)CCN(O)C(=O)Nc1ccccc1` [Compound 44, 1-hydroxy-1-(3-methylbutyl)-3-phenylurea], 10 nM. `Cc1cccc(NC(=O)N(O)C(C)C)c1` [Compound 21, 1-hydroxy-1-(1-methylethyl)-3-(3-methylphenyl)urea]: the IC50 under setting [1] is 230 nM.

On to `Cc1ccccc1NC(=O)N(O)C(C)C` [Compound 25, 1-hydroxy-1-(1-methylethyl)-3-(2-methylphenyl)urea], for which the IC50 under setting [1] is 130 nM. In the case of `CC(C)N(O)C(=O)Nc1ccccc1F` [Compound 20, 3-(2-fluorophenyl)-1-hydroxy-1-(1-methylethyl)urea], the IC50 under setting [1] is 700 nM.

Turning to `CN(O)C(=O)Nc1cccc([N+](=O)[O-])c1` [Compound 9, 1-hydroxy-1-methyl-3-(3-nitrophenyl)urea], under setting [1], the IC50 stood at 80 nM.

As for `CC(C)N(O)C(=O)Nc1ccccc1` [Compound 17, 1-hydroxy-1-(1-methylethyl)-3-phenylurea], the IC50 under setting [1] worked out at 43 nM.

Take `CSc1ccc(NC(=O)N(C)O)cc1` [Compound 1, 1-Hydroxy-1-methyl-3-[4-(methylthio)phenyl]urea]: the IC50 under setting [1] is 83 nM. Consider `CN(O)C(=O)Nc1cccc(Br)c1` [Compound 6, 3-(3-bromophenyl)-1-hydroxy-1-methylurea], for which the half-maximal inhibitory concentration (IC50) under setting [1] amounted to 70 nM. Take `CC(C)N(O)C(=O)Nc1ccc(Br)cc1` [Compound 19, 3-(4-bromophenyl)-1-hydroxy-1-(1-methylethyl)urea]: under setting [1], the IC50 was found to be 100 nM. Consider `CSc1cccc(NC(=O)N(O)C(C)C)c1` [Compound 16, 1-hydroxy-1-(1-methylethyl)-3-[3-(methylthio)phenyl]urea], for which the IC50 under setting [1] was determined as 8 nM.

Values taken from patent EP0777471B1, “INHIBITION OF LEUKOTRIENE BIOSYNTHESIS WITH UREA DERIVATIVES” (MINNESOTA MINING AND MANUFACTURING COMPANY, priority 1994, dated 1996).
